Data: US8927565B2, “Compositions for veterinary and medical applications” (priority 2003, dated 2015)

How the values were obtained:
Staph. Aureus ATCC 29213 = assay: Antimicrobial activity, Minimum Inhibitory Concentration; assay type: cell-based, Staphylococcus aureus
Strep. Group B MCR1 27 = assay: as above; assay type: cell-based, Streptococcus Group B; details: for Minimum Inhibitory Concentration: Strep. Group B MCR1 27
E. coli HS = assay: as above; assay type: cell-based, Escherichia Coli
V. cholerae 6239 = assay: as above; assay type: cell-based, Vibrio cholerae; details: for Minimum Inhibitory Concentration: V. cholerae 6239
C. albicans ATCC 14053 = assay: as above; assay type: cell-based, Candida albicans; details: for Minimum Inhibitory Concentration: C. albicans ATCC 14053
L. plantarum = assay: as above; assay type: cell-based, Lactobacillus plantarum; details: for Minimum Inhibitory Concentration: L. plantarum
piglets = assay: GILAX as feed additive for pig health after weaning; assay type: in vivo; details: in-feed amoxicillin at 50 mg/kg/day for 21 days (positive control)
[1] = test system: Cl. perfringens ATCC 1124; assay type: cell-based; details: Clostridium perfringens
Escherichia Coli = assay: Loss of filaments and of attachment to intestinal wall below the MIC; assay type: cell-based; details: berberine at 5 µg/ml, much lower than MIC
Text: (§1) This specific property of berberine offers an important aspect as a GI tract cleanser, since it can selectively remove pathogenic bacteria from the gut without affecting the inhabitations of the probiotic bacteria in GI tract, and without exerting excessive drug pressure on the bacteria, which may lead to drug resistance.

Lactobacilli = assay: Effect on probiotic bacteria below the MIC; assay type: cell-based; details: berberine at 5 µg/ml
Text: as §1

interleukine-12 (IL-12) = assay: Induction of interleukine-12
IL-8 = assay: Inhibition of IL-8 production
[2] = test system: hFUT1 mouse model of colitis; assay: Treatment of IBD on mouse model; assay type: in vivo; details: Group 2: berberine chloride 13.5 mg/kg/day (o.s.)
Text: hFUT1 mouse model of colitis was used. It provides insights into the pathogenesis of Inflammatory Bowel Disease (IBD). […] Immune dysfunction contributing to IBD in humans includes abnormal T cell reactivity and a loss of tolerance to gut bacteria. The compositions of Formula (1) and Formula (2) were given orally to mice to see the effectiveness on the altering the gut flora and lessening the severity of the colitis. The positive results indicated the compositions of Formula and Formula (2) may have a therapeutic role in human IBD.
A total five groups with ten mice per group were used as follows. • 1) Control (without treatment). • 2) Treated with compound of the Formula (1) (berberine chloride), 13.5 mg/kg/day (o.s.). • 3) Treated with compound of the Formula (2) (40% oxidized cellulose), 114 mg/kg/day (o.s.). • 4) Treated with composition of the Formula (1) (berberine chloride) (6.7 mg/kg/day) and the Formula (2) (40% oxidized cellulose) (57 mg/kg/day) (o.s.). • 5) Treated with composition of the Formula (1) (berberine chloride) (13.5 mg/kg/day) and the Formula (2) (114 mg/kg/day) (o.s.).

[3] = across the intestinal tissue; reference [13]; cited from earlier work
chickens = assay: Pilot chicken experiment (feed additives, growth and red combs)

For CC[C@H]1OC(=O)[C@H](C)[C@@H](O[C@H]2C[C@@](C)(OC)[C@@H](O)[C@H](C)O2)[C@H](C)[C@@H](O[C@@H]2O[C@H](C)C[C@H](N(C)C)[C@H]2O)[C@](C)(O)C[C@@H](C)C(=O)[C@H](C)[C@@H](O)[C@]1(C)O [Erythromycin, reference compound], which “Minimum Inhibitory Concentration” value (Staph. Aureus ATCC 29213; Staph. Aureus ATCC 29213) is on record?
The value was less than 0.625 µg/mL.

And the “Minimum Inhibitory Concentration” value (Strep. Group B MCR1 27)?
Its value is less than 0.625 µg/mL.

And the “Minimum Inhibitory Concentration” value (E. coli HS)?
Its value is greater than 10 µg/mL.

And the “Minimum Inhibitory Concentration” value (V. cholerae 6239)?
The value was greater than 10 µg/mL.

And the “Minimum Inhibitory Concentration” value (C. albicans ATCC 14053)?
The value was greater than 10 µg/mL.

What about the “Minimum Inhibitory Concentration” value (L. plantarum) of the same compound?
The value was less than 0.625 µg/mL.

Which results are given for CC1(C)S[C@@H]2[C@H](NC(=O)[C@H](N)c3ccc(O)cc3)C(=O)N2[C@H]1C(=O)O [Amoxicillin, amoxicillin]?
health of piglets after weaning (piglets): all healthy; need of injectable amoxicillin for sick piglets (piglets): no injectable amoxicillin was needed

Which “inhibition of pathogenic bacteria (in words)” value (Staph. Aureus ATCC 29213; Staphylococcus aureus) does the source give for COc1ccc2cc3[n+](cc2c1OC)CCc1cc2c(cc1-3)OCO2.[Cl-] [berberine chloride] here?
Its value is “selectively inhibits”.

And the “Minimum Inhibitory Concentration” value (Strep. Group B MCR1 27)?
Its value is 62.5 µg/mL.

And the “inhibition of pathogenic bacteria (in words)” value (Strep. Group B MCR1 27; Streptococcus Group B)?
Its value is “selectively inhibits”.

What about the “Minimum Inhibitory Concentration” value (E. coli HS) of the same compound?
Its value is greater than 500 µg/mL.

And the “Minimum Inhibitory Concentration” value (V. cholerae 6239)?
Its value is 125 µg/mL.

What about the “inhibition of pathogenic bacteria (in words)” value (V. cholerae 6239; Vibrio cholerae) of the same compound?
Its value is “selectively inhibits”.

And the “Minimum Inhibitory Concentration” value (C. albicans ATCC 14053)?
Its value is 62.5 µg/mL.

And the “inhibition of pathogenic bacteria (in words)” value (C. albicans ATCC 14053; Candida albicans)?
The value was “selectively inhibits”.

And the “inhibition of pathogenic bacteria (in words)” value [1]?
The value was “selectively inhibits”.

What about the “Minimum Inhibitory Concentration” value (L. plantarum) of the same compound?
The value was 500 µg/mL.

What about the “inhibition of beneficial bacteria (probiotics) (in words)” value (L. plantarum; Lactobacillus plantarum, at <500 µg/ml) of the same compound?
Its value is “does not inhibit”.

What about the “effect on filaments and attachment on the wall of intestine” value (Escherichia Coli) of the same compound?
Its value is “lost their filaments and were unable to attach on the wall of intestine”.

What about the “effect on probiotic bacteria” value (Lactobacilli) of the same compound?
Its value is “did not affect”.

And the “induction of interleukine-12 (IL-12)” value (interleukine-12 (IL-12))?
Its value is “could induce”.

And the “inhibition of the production of IL-8” value (IL-8)?
The value was “inhibit the production of IL-8”.

And the “Survival rate after 56 days treatment” value [2]?
Its value is 5/10.

What about the “apparent permeability coefficient (Papp)” value [3] of the same compound?
Its value is ~10^−7 cm/s.

What about the “Growth rate compared to that of the control on day 36” value (chickens; Group A: 50 ppm berberine chloride in feed) of the same compound?
Its value is 106.36% (p = 0.05).

And the “Red Combs (Number of red comb/total number of chickens)” value (chickens; Group A: 50 ppm berberine chloride in feed, Day 14 (start of additive))?
Its value is 0/5.

And the “Red Combs (Number of red comb/total number of chickens)” value (chickens; Group A: 50 ppm berberine chloride in feed, Day 17)?
Its value is 1/5.

And the “Red Combs (Number of red comb/total number of chickens)” value (chickens; Group A: 50 ppm berberine chloride in feed, Day 21)?
Its value is 1/5.

And the “Red Combs (Number of red comb/total number of chickens)” value (chickens; Group A: 50 ppm berberine chloride in feed, Day 24)?
Its value is 3/5.

What about the “Red Combs (Number of red comb/total number of chickens)” value (chickens; Group A: 50 ppm berberine chloride in feed, Day 26) of the same compound?
Its value is 3/5.

What about the “Red Combs (Number of red comb/total number of chickens)” value (chickens; Group A: 50 ppm berberine chloride in feed, Day 32) of the same compound?
Its value is 4/5.

And the “Red Combs (Number of red comb/total number of chickens)” value (chickens; Group A: 50 ppm berberine chloride in feed, Day 36)?
Its value is 4/5.

And the “Growth rate compared to that of the control on day 36” value (chickens; Group B: 10 ppm berberine chloride in feed)?
Its value is 101.79%.

What about the “Red Combs (Number of red comb/total number of chickens)” value (chickens; Group B: 10 ppm berberine chloride in feed, Day 14 (start of additive)) of the same compound?
The value was 0/5.

What about the “Red Combs (Number of red comb/total number of chickens)” value (chickens; Group B: 10 ppm berberine chloride in feed, Day 17) of the same compound?
Its value is 0/5.

And the “Red Combs (Number of red comb/total number of chickens)” value (chickens; Group B: 10 ppm berberine chloride in feed, Day 21)?
The value was 2/5.

And the “Red Combs (Number of red comb/total number of chickens)” value (chickens; Group B: 10 ppm berberine chloride in feed, Day 24)?
Its value is 2/5.

What about the “Red Combs (Number of red comb/total number of chickens)” value (chickens; Group B: 10 ppm berberine chloride in feed, Day 26) of the same compound?
The value was 3/5.

What about the “Red Combs (Number of red comb/total number of chickens)” value (chickens; Group B: 10 ppm berberine chloride in feed, Day 32) of the same compound?
Its value is 4/5.

And the “Red Combs (Number of red comb/total number of chickens)” value (chickens; Group B: 10 ppm berberine chloride in feed, Day 36)?
The value was 5/5.

What about the “residue found in the meat of chickens” value (chickens; after feeding as feed additive) of the same compound?
The value was “no residue”.
